# Data taken from patent publication US20230054895A1, “METHODS FOR INDUCING BIOSTASIS IN A CELL, TISSUE OR ORGAN” (PRESIDENT AND FELLOWS OF HARVARD COLLEGE, priority 2020, published 2023).
# Entries after “also recorded” stand apart in the source; their conditions may differ. Where a name gives a salt, the structure may show the parent alone. Read-outs that look alike come from different tables or passages of the source.
# How the values were obtained:
# Xenopus tadpoles [1] = test: Oxygen consumption of Xenopus tadpoles and embryos; assay type: in vivo, Xenopus laevis
# Xenopus tadpoles [2] = test: Movement / swimming of Xenopus tadpoles (stasis and reversal); assay type: in vivo, Xenopus laevis
# Description: This slowing of motion is reversible; average movement of the Xenopus tadpoles is returned to pre-treatment levels following removal of Donepezil. […] The drug is removed at 30 minutes, as indicated by the hash-line. Movement resumed within 50 min after drug removal.
# To determine if this slowing of movement is reversible, the drug was removed from the culture medium after 30 minutes (denoted by the hashed-line). Movement resumed at the pre-treatment level within 50 min after drug removal.
# The effects of SNC-80 and the NCX1 inhibitor KB-R7943 mesylate (also referred to herein as “WC-60) were evaluated alone and in combination. Tadpoles were exposed to SNC-80 at 25 μM for 24 hr continuously, and swimming was assessed. […] Similarly, no effect on oxygen consumption was observed when tadpoles were exposed to KB-R7943 mesylate at 35 uM for 24 h continuously (FIG. 25B).
# Xenopus embryos = system: Xenopus embryos
# Text: Developed tail length assay are used to assess embryo tail development during drug contact.
# Automated embryo culture and imaging platform with machine vision processing. Analysis pipeline allows screening scale-up to hundreds of embryos at a given time.
# The effects of ^2H2O on metabolism were examined in relation to biostasis in vivo. Xenopus embryos were contacted with 0.1×MMR media prepared with various concentrations of ^2H2O.
# Xenopus tadpoles [3] = assay type: in vivo; details: 50 uM for 30 min, recovery, tested over 24 h
# Description: Tadpoles were then tested over a 24 h period in an automated behavior and cognitive testing platform to measure cognitive or motor function.
# Finally, the cognitive and motor function performance of Xenopus tadpoles treated with Donepezil was assessed. […] Following the onset of stasis, the drug was removed and tadpoles were allowed to recover. Tadpoles were then tested over a 24 hour period in an automated behavior and cognitive testing platform to measure whether tadpoles that previously went through stasis had decreased cognitive and motor function performance.
# mice = details: FIG. 1, Rawls and Cowan 2006; cited from earlier work
# Xenopus tadpoles [4] = test: Oxygen consumption of Xenopus tadpoles and embryos; assay type: in vivo, Xenopus laevis; remark: listed apart in the source
# Text: Dynamic drug dosing used to examine stasis control parameters (10 tadpoles/chamber, n=3 replicates).
# The oxygen consumption assay described herein above was used.
# Caco-2 cells [5] = test: Intracellular ATP in Caco-2 cells; assay type: cell-based
# [6] = high doses; cited from earlier work
# pig hind limb = test: Pig hind limb ex vivo perfusion on ULiSSES Platform (biostasis of a pig limb)
# Description: Protocol for Evaluating the Effect of an Agent on Inducing Biostasis of a Pig Limb.
# The establishment of biostasis in a mammal according to the methods described herein was evaluated in a pig limb model. Prior to removing a hind limb from the animal, a pre-operation blood draw was preformed to obtain a baseline. The hind limb was removed via an amputation, and four muscle biopsies were immediately taken. For use in RT-PCR, a first biopsy was stored at −80° C. to preserve RNA integrity. For histology, a second biopsy was fixed in formalin and stored at 2-4° C. or at room temperature. For use in ELISA, a third biopsy was snap frozen and stored at −80° C. Finally, in lieu of Microdialysis, a fourth biopsy was snap frozen and stored at −80° C.
# The limb was first flushed with 4° C. heparinized Krebs Henseleit Buffer alone. The limb was then weighed and attached to the ULiSSES Platform. The Platform was run subnormothermic relative to […] (e.g., 18-23° C.). During the protocol, the limb was perfused with buffer alone (control) or buffer with SNC-80. Further description of the ULiSSES Platform can be found on the world wide web at www.techbriefs.com/component/content/article/tb/stories/blog/35406.
# Following the limb being attached to the platform (time 0 hour), an RNA-preserving biopsy, a formalin-fixed biopsy, and a snap frozen biopsy were taken, and a perfusate sample was also taken. The “perfusate sample” is a sample that is assessed for arterial and […] blood gases, and subjected to a blood chemistry panel to measure sodium, potassium, glucose, and lactate levels. The perfusate sample is further snap frozen for other analyses, including RNAseq and cytokine analysis.
# These sampling steps were further repeated at times 3 hours, 6 hours, 12 hours, and 24 hours. At times 9 hours, 15 hours, 18 hours, and 21 hours, a perfusate sample was taken.
# The protocol was completed at time 24 hours. The limb was removed from the ULiSSES Platform and weighed. Separate, proof of concept experiments were performed as described above, but were completed at time 6 hours.
# Caco-2 cells [7] = test: NAD/NADH live reporting in Caco-2 cells; assay type: cell-based; details: 100 uM, p<0.0005, comparable to positive control sodium oxamate
# Caco-2 cells [8] = test: Respiration / oxygen utilization in Caco-2 cells; assay type: cell-based
# rats = details: via delta-2 opioid receptor; cited from earlier work
# Xenopus tadpoles [9] = test: Movement / swimming of Xenopus tadpoles (stasis and reversal); assay type: in vivo, Xenopus laevis; remark: listed apart in the source
# tadpoles = test: Life span of tadpoles in low-oxygen environments; assay type: in vivo, Xenopus; details: 50% ^2H2O-treated tadpoles; MMR controls 6 hours
# Description: At the indicated consumption rate, ^2H2O-treated tadpoles survive for >30 hours as compared to 6 hours for MMR controls.
# Xenopus tadpoles [10] = test: Recovery from Donepezil-induced biostasis in tadpoles (tail length, oxygen consumption); assay type: in vivo; details: 50 mM kestose in MMR vs MMR alone
# Description: To determine if an agent plays a role in accelerating recovery following induction of biostasis, tadpoles can be treated with a biostasis-inducing agent as described herein, to induce biostasis and then transferred to a medium containing a test agent, or just medium. Recovery is assessed by assessing development rate following recovery (e.g., by measuring tadpole tail length), movement, and oxygen consumption.
# [11] = 25 μM SNC-80, 24 hr continuously
# [12] = compared to control treated limb
# [13] = perfusate, vs control treatment
# [14] = prior to and following treatment
# [15] = 50% ^2H2O, 4 days biostasis, 3 days of recovery
smiles,measurement,setting,value
CCN(CC)CCCN(c1ccccc1)C1Cc2ccccc2C1 [Aprindine],oxygen consumption of free swimming tadpoles,"Xenopus tadpoles [1]; 25 uM, after 20 min of exposure, vs vehicle controls",decreased oxygen consumption
"COc1cc2c(cc1OC)C(=O)C(CC1CCN(Cc3ccccc3)CC1)C2 (stereo not shown) [Donepezil, 2-((1-Benzylpiperidin-4-yl)methyl)-5,6-dimethoxy-2,3-dihydro-1H-inden-1-one]",time to slowing of motion after drug addition,Xenopus tadpoles [2]; 50 uM Donepezil,≤ 10 min
same,time to resumption of movement after drug removal,Xenopus tadpoles [2]; 50 uM Donepezil removed at 30 minutes,≤ 50 min
same,tail length,"Xenopus embryos; Xenopus tadpoles, compared to vehicle control or SNC-80",reduced tail length
same,cognitive performance,Xenopus tadpoles [3],may have slightly improved cognitive performance
N=C(N)SCCc1ccc(OCc2ccc([N+](=O)[O-])cc2)cc1 [KB-R7943 mesylate],swimming,"Xenopus tadpoles [2]; KB-R7943 mesylate, data not shown",decreased swimming
same,oxygen consumption in tadpoles,"Xenopus tadpoles [1]; 35 μM KB-R7943 mesylate, 24 h continuously",no effect
same,oxygen consumption in tadpoles,"Xenopus tadpoles [1]; 35 μM KB-R7943 mesylate, 24 h continuously, listed as KB-R7943 Mesylate",No change
Oc1ccc2c3c1O[C@H]1c4[nH]c5ccccc5c4C[C@@]4(O)[C@@H](C2)N(CC2CC2)CC[C@]314 [Naltrindole],blocking of the stasis-inducing effects of SNC-80,"Xenopus tadpoles [1]; concentrations up to 100 uM, 4 h of exposure",does not block
"C=CCN1C[C@H](C)N([C@H](c2ccc(C(=O)N(CC)CC)cc2)c2cccc(OC)c2)C[C@H]1C [SNC-80, (+)-4-[(αR)-α-((2S,5R)-4-Allyl-2,5-dimethyl-1-piperazinyl)-3-methoxybenzyl]-N,N-diethylbenzamide]",hypothermia,mice,induces hypothermia
same,induction of biostasis,Xenopus tadpoles [2]; 25 μM SNC-80,not sufficient to induce biostasis
same,swimming,Xenopus tadpoles [2]; [11],normal swimming
same,reversibility of movement arrest,Xenopus tadpoles [2]; removal / withdrawal of the drug,reversed upon withdrawal of the drug; also recorded: reversed by removal of the drug
same,delay in impacting oxygen metabolism,"Xenopus tadpoles [4]; 60 μM dose, dynamic dosing, 10 tadpoles/chamber, n=3",~10 min
same,oxygen consumption and other metrics of metabolic rate,"Xenopus tadpoles [4]; healthy tissues and Xenopus tadpoles, dose dependence",dose-dependent reduction in oxygen consumption
same,intracellular ATP,Caco-2 cells [5],reduction in intracellular ATP levels
same,intracellular ATP,Caco-2 cells [5]; listed as SNC80,reduces intracellular ATP
same,oxygen consumption in tadpoles,Xenopus tadpoles [1]; [11],No change; also recorded: normal
same,oxygen consumption of embryos,"Xenopus tadpoles [1]; Xenopus embryos, FIG. 7",reduces oxygen consumption
same,oxygen consumption in tadpoles,Xenopus tadpoles [1]; stasis inducing concentration of SNC-80 in combination with 100 uM Naltrindole,remains decreased
same,convulsions,[6],produces convulsions at high doses
same,reduction of embryo length compared to control,"Xenopus embryos; 0.4 μM SNC-80 (n=5) vs control (n=6), end of dosing period t=48 h",19.8%
same,embryo length after drug removed,"Xenopus embryos; 0.4 μM SNC-80, after drug removal",caught up to controls
same,relative metabolic rate in hind limb,"pig hind limb; 3 hours post treatment, slope vs control P<0.0001",marked reduction of metabolic rate; also recorded: noticeable reduction
same,oxygen uptake in hind limb,"pig hind limb; 10 hours post-treatment, vs control treated limb",noticeable reduction
same,oxygen uptake in hind limb,"pig hind limb; 24 hours post-treatment, vs control treated limb",marked reduction
same,change in mass of limb prior to and following treatment,pig hind limb; [12],larger change in a mass; also recorded: greater difference
same,oxygen uptake in hind limb,pig hind limb; [12],markedly reduces oxygen uptake
same,oxygen uptake levels relative to hypothermic conditions,pig hind limb; data not shown,greater extent than hypothermic conditions
same,glucose level,pig hind limb; [13],No change; also recorded: not a marked difference
same,lactate level,pig hind limb; [13],No change; also recorded: not a marked difference
same,potassium level,pig hind limb; [13],No change; also recorded: not a marked difference
same,"glycogen content inside the cells (PAS, optical density)",pig hind limb; [14],remains at a basal level
same,intercellular edema (histology of limb muscle),pig hind limb; [14],increase in intercellular edema
same,muscle bundle area (histology),pig hind limb; [14],did not increase significantly
same,relative metabolic rate in hind limb,pig hind limb; vs control (perfusion medium alone),markedly reduces metabolic rate
same,NAD/NADH ratio,Caco-2 cells [7],significant increase
same,respiration / oxygen utilization,Caco-2 cells [8],did not inhibit oxygen utilization
same,respiration / oxygen utilization,Caco-2 cells [8]; listed as SNC80,respiration unchanged
same,hypothermia,rats,induce hypothermia
same,biostatic effect in Xenopus laevis tadpoles,Xenopus tadpoles [9]; FIG. 8,reversible biostatic effect
same,concentration resulting in arrest of tadpole movement,Xenopus tadpoles [9]; Xenopus tadpoles,> 100 µM
same,movement of whole animals,Xenopus tadpoles [9]; high-dose administration,completely arrested
"[2H]O[2H] [^2H2O, Deuterium oxide]",survival in low-oxygen environment at the indicated consumption rate,tadpoles,> 30 h
same,concentrations with no effect on swimming,Xenopus tadpoles [2]; tadpoles,< 50%
same,oxygen consumption of embryos,"Xenopus tadpoles [1]; 50% ^2H2O, within hours of contact",reduced oxygen consumption
same,embryo length,Xenopus embryos; 50% ^2H2O in 0.1×MMR,marked reduction in embryo length
same,adverse effects after recovery,Xenopus embryos; [15],do not exhibit adverse effects
same,developmental state after recovery,Xenopus embryos; [15],remain developmentally delayed
same,concentrations with no effect on tail length,Xenopus embryos; Xenopus embryos,< 50%
same,concentrations that were toxic,"Xenopus embryos; Xenopus embryos, data not shown",> 70%
same,time to slowed swimming,Xenopus tadpoles [9]; 50% ^2H2O,≤ 10 min
same,concentrations that were toxic,Xenopus tadpoles [9]; tadpoles,> 70%
same,swimming after return to normal media,"Xenopus tadpoles [9]; without ^2H2O, data not shown",returned to normal
OC[C@H]1O[C@@](CO)(OC[C@@]2(O[C@H]3O[C@H](CO)[C@@H](O)[C@H](O)[C@H]3O)O[C@H](CO)[C@@H](O)[C@@H]2O)[C@@H](O)[C@@H]1O [kestose],recovery from biostasis induced via Donepezil,Xenopus tadpoles [10],faster recovery
